Data as given in patent publication US20090011951A1, “Method of Gene Screening With Yeast Having Ergosterol Synthase Undergoing Inducible Expression” (priority 2004, published 2009).

Legend:
yeast = conditions: known action; cited from earlier work
[1] = test system: yeast (Saccharomyces cerevisiae) that inducibly expresses ERG6; assay: Cycloheximide sensitivity of the strain that inducibly expresses ERG6; format: cell-based; conditions: 30° C., 2 days, various concentrations
Description: The following experiments were performed to confirm a difference in drug resistance of yeast that inducibly expresses ergosterol depending on presence or absence of induction.
It was confirmed that the drug sensitivity was increased by turning off the expression of ergosterol.

Row | Compound | growth inhibitory action against yeast (yeast) | cycloheximide sensitivity ([1]; galactose medium (ERG6 induced)) | cycloheximide sensitivity ([1]; glucose medium (ERG6 repressed))
1 | CN(Cc1cnc2nc(N)nc(N)c2n1)c1ccc(C(=O)N[C@@H](CCC(=O)O)C(=O)O)cc1 [Methotrexate] | has a growth inhibitory action against yeast |  | 
2 | C[C@@H]1C[C@@H]([C@H](O)CC2CC(=O)NC(=O)C2)C(=O)[C@@H](C)C1 [cycloheximide] |  | equal to that of a pdr1 pdr3-disrupted stain (ERG6 strain) | equal to that of a pdr1 pdr3 erg6-disrupted strain
